Experimental data taken from publication PMC4522657, “Identification of a DYRK1A Inhibitor that Induces Degradation of the Target Kinase using Co-chaperone CDC37 fused with Luciferase nanoKAZ” (Scientific Reports, 2015).

Experiments:
Assay in all cases: Kinase panel, CaNDY 1 µM
Assay type in all cases: biochemical
Settings in all cases: CaNDY 1 µM relative to DMSO
PDGFRβ = biological target: T1, PDGFRβ (Homo sapiens, UniProt P09619)
T1 construct: purchased Carna Biosciences
Text: (§1) Detailed information on the assay conditions is available on the website of Carna Biosciences (http://www.carnabio.com/english/index.html; Kobe, Japan). In brief, full-length human recombinant kinases were expressed using a baculovirus expression system as amino-terminal GST-fusion proteins, and purified by glutathione-Sepharose chromatography. The GenBank accession numbers of DYRK1A, DYRK1B, DYRK2, and DYRK3 were NP_001387.2, NP_004705.1, NP_003574.1, and NP_003573.2. Kinase activities were evaluated by Off-chip Mobility Shift Assay after reaction of 1 μM of the substrate DYRKtide-F with ATP (25 μM for DYRK1A, 50 μM for DYRK1B, 10 μM for DYRK2, and 5 μM for DYRK3). For each compound, a DMSO solution was diluted in assay buffer to yield a final concentration of 1% DMSO. After incubation for one hour at room temperature, substrate phosphorylation was analyzed by electrophoretic separation of the substrate and products using a Caliper LC3000 platform (Caliper Life Sciences, Mountain View, CA, USA). The phosphorylated product (P)/(P + substrate) ratio was calculated at each concentration of each small molecule and the percent inhibition was expressed relative to a control assay in the absence of the small molecule. […] The IC50 of each compound was calculated by interpolation on a log-concentration-response curve fitted with a four-parameter logistic equation.
(§2) All kinase assays were carried out at Carna Biosciences. The inhibitory map was made with Kinome Render[36].

FGFR4(V550E) = biological target: T2, FGFR4(V550E) (Homo sapiens, UniProt P22455, V550E)
T2 construct: purchased Carna Biosciences
Text: as §1, §2

BRSK1 = biological target: T3, BRSK1 (Homo sapiens, UniProt Q8TDC3)
T3 construct: purchased Carna Biosciences
Text: as §1, §2

MST4 = biological target: T4, MST4 (Homo sapiens, UniProt Q9P289)
T4 construct: purchased Carna Biosciences
T4 sequence (Q9P289 whole entry): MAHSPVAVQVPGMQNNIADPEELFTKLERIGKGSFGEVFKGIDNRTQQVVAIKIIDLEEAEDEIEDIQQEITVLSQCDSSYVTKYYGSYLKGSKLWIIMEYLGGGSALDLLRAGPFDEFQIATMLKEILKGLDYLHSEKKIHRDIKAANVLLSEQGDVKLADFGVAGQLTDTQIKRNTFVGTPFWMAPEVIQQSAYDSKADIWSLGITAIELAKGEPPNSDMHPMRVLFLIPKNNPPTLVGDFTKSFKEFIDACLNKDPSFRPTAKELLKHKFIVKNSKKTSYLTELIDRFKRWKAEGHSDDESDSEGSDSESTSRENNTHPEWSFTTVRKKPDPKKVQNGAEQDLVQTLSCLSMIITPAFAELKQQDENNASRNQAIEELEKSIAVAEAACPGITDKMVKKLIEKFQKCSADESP
Text: as §1, §2

FLT3 = biological target: T5, FLT3 (Homo sapiens, UniProt P36888)
T5 construct: purchased Carna Biosciences
Text: as §1, §2

MARK3 = biological target: T6, MARK3 (Homo sapiens, UniProt P27448)
T6 construct: purchased Carna Biosciences
Text: as §1, §2

AurA/TPX2 = biological target: T7, AurA/TPX2 (Homo sapiens, UniProt O14965)
T7 construct: purchased Carna Biosciences
T7 sequence (O14965 whole entry): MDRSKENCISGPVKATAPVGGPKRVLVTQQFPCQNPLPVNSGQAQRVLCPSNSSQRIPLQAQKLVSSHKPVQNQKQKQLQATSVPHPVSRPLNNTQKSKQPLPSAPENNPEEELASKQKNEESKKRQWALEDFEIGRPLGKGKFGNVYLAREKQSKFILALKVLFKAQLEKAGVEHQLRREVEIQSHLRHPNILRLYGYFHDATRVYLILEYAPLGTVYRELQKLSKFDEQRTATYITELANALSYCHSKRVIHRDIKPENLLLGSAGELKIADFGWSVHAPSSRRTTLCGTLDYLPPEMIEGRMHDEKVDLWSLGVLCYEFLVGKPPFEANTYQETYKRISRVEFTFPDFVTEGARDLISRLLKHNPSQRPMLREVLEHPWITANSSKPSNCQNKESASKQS
T7 sequence (Q9ULW0 1-43 partner limits assumed): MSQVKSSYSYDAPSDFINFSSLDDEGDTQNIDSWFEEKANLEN
Text: as §1, §2

RON = biological target: T8, RON (Homo sapiens, UniProt Q04912)
T8 construct: purchased Carna Biosciences
Text: as §1, §2

TYRO3 = biological target: T9, TYRO3 (Homo sapiens, UniProt Q06418)
T9 construct: purchased Carna Biosciences
T9 sequence (Q06418 41-890): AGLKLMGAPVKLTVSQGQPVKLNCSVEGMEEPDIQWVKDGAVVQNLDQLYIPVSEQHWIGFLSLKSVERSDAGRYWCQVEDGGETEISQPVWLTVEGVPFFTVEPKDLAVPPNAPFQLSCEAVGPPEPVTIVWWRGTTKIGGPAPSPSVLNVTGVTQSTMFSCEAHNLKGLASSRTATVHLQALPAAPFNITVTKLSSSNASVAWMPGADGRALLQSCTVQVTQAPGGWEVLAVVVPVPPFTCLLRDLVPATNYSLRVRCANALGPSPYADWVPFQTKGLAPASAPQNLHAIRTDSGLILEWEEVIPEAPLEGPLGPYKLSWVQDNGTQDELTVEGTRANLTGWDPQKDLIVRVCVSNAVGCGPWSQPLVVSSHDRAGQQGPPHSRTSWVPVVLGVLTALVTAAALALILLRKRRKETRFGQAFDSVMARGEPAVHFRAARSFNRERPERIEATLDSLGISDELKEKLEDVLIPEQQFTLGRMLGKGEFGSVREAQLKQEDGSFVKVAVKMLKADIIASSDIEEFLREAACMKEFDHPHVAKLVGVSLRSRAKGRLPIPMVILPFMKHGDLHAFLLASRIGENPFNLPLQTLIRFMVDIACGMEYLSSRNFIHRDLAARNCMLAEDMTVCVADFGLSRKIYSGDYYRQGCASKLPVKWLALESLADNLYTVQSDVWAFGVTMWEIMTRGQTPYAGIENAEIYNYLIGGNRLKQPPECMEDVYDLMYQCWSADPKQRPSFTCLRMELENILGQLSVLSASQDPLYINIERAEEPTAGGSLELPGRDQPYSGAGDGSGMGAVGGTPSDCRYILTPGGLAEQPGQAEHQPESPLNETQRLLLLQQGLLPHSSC
Text: as §1, §2

TXK = biological target: T10, TXK (Homo sapiens, UniProt P42681)
T10 construct: purchased Carna Biosciences
Text: as §1, §2

TAK1-TAB1_Cascade = biological target: T11, TAK1-TAB1_Cascade (Homo sapiens, UniProt O43318)
T11 construct: purchased Carna Biosciences
T11 sequence (O43318 with tags, fused parts or gaps limits assumed): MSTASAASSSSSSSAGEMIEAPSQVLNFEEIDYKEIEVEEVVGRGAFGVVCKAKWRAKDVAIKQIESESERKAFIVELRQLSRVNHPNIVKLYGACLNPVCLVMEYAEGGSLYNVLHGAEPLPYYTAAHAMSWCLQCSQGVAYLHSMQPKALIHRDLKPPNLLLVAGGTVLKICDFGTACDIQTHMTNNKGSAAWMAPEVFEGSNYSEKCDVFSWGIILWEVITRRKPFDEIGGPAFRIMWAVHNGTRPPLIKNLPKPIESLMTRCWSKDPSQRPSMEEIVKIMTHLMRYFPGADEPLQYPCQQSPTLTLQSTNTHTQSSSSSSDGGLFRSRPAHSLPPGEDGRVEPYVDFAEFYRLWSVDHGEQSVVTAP
Text: as §1, §2

MNK1 = biological target: T12, MNK1 (Homo sapiens, UniProt Q9BUB5)
T12 construct: purchased Carna Biosciences
Text: as §1, §2

PKCε = biological target: T13, PKCε (Homo sapiens, UniProt Q02156)
T13 construct: purchased Carna Biosciences
T13 sequence (Q02156 whole entry): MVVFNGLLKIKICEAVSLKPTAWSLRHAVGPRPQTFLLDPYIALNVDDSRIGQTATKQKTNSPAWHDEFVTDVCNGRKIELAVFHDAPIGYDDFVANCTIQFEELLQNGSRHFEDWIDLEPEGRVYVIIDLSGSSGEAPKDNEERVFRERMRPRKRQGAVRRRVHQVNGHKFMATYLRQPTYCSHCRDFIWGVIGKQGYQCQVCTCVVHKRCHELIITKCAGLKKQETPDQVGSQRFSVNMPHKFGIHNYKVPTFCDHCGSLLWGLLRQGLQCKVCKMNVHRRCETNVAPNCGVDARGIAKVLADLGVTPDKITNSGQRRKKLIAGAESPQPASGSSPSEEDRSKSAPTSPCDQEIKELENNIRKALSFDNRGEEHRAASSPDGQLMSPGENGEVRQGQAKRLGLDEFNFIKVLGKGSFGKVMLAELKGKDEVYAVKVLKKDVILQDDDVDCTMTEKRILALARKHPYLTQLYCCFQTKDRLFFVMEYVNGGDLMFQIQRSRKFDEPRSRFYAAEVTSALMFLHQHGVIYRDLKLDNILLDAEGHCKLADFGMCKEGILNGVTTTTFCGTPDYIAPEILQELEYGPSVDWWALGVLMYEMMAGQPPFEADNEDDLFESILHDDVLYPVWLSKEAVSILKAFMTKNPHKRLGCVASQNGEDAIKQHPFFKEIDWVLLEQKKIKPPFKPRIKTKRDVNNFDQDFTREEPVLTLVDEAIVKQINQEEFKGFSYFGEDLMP
Text: as §1, §2

EPHB3 = biological target: T14, EPHB3 (Homo sapiens, UniProt P54753)
T14 construct: purchased Carna Biosciences
Text: as §1, §2

EGFR(d746-750) = biological target: T15, EGFR(d746-750) (Homo sapiens, UniProt P00533, DEL746-750)
T15 construct: purchased Carna Biosciences
Text: as §1, §2

BMX = biological target: T16, BMX (Homo sapiens, UniProt P51813)
T16 construct: purchased Carna Biosciences
Text: as §1, §2

MUSK = biological target: T17, MUSK (Homo sapiens, UniProt O15146)
T17 construct: purchased Carna Biosciences
T17 sequence (O15146 24-869): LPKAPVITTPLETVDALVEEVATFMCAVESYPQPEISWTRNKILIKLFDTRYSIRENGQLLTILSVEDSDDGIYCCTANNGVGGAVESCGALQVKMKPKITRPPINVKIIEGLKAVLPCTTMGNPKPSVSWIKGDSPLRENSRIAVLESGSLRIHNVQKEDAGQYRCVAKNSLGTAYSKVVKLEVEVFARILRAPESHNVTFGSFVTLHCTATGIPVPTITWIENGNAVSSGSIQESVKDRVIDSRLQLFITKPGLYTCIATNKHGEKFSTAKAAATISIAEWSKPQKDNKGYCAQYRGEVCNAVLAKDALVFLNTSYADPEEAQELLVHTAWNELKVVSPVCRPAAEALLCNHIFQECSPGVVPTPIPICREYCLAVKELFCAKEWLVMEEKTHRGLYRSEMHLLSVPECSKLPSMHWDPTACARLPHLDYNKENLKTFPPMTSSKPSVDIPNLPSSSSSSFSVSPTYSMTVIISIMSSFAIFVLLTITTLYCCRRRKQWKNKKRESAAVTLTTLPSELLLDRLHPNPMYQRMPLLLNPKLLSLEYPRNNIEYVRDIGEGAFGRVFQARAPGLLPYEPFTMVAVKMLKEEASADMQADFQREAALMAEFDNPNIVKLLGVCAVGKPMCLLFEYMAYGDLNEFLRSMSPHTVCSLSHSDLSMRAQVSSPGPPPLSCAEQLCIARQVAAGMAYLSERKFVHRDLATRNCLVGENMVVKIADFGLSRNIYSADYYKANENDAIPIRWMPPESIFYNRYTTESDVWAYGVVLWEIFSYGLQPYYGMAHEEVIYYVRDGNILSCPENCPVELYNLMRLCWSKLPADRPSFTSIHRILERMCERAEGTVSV
Text: as §1, §2

CaMK2δ = biological target: T18, CaMK2δ (Homo sapiens, UniProt Q13557)
T18 construct: purchased Carna Biosciences
Text: as §1, §2

CHK2 = biological target: T19, CHK2 (Homo sapiens, UniProt O96017)
T19 construct: purchased Carna Biosciences
T19 sequence (O96017 whole entry): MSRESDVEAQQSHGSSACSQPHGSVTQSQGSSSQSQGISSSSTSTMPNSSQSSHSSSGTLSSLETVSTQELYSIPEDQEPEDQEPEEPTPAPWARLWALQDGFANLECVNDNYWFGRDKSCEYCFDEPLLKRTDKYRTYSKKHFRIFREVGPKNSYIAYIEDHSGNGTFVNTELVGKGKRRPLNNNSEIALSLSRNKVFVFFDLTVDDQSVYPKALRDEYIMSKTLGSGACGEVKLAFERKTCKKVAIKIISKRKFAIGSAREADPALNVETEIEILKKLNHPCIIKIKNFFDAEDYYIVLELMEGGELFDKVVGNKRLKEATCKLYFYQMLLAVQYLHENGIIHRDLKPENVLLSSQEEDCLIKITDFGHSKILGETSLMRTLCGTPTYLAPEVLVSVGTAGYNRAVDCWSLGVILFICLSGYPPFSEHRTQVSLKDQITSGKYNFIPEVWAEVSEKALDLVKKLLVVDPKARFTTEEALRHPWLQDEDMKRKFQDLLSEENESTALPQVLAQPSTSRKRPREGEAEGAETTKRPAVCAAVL
Text: as §1, §2

JAK2 = biological target: T20, JAK2 (Homo sapiens, UniProt O60674)
T20 construct: purchased Carna Biosciences
Text: as §1, §2

PKCδ = biological target: T21, PKCδ (Homo sapiens, UniProt Q05655)
T21 construct: purchased Carna Biosciences
Text: as §1, §2

FGFR3(K650M) = biological target: T22, FGFR3(K650M) (Homo sapiens, UniProt P22607, K650M)
T22 construct: purchased Carna Biosciences
Text: as §1, §2

AMPKα2/β1/γ1 = biological target: T23, AMPKα2/β1/γ1 (Homo sapiens, UniProt P54646)
T23 construct: purchased Carna Biosciences
Text: as §1, §2

HIPK4 = biological target: T24, HIPK4 (Homo sapiens, UniProt Q8NE63)
T24 construct: purchased Carna Biosciences
T24 sequence (Q8NE63 whole entry): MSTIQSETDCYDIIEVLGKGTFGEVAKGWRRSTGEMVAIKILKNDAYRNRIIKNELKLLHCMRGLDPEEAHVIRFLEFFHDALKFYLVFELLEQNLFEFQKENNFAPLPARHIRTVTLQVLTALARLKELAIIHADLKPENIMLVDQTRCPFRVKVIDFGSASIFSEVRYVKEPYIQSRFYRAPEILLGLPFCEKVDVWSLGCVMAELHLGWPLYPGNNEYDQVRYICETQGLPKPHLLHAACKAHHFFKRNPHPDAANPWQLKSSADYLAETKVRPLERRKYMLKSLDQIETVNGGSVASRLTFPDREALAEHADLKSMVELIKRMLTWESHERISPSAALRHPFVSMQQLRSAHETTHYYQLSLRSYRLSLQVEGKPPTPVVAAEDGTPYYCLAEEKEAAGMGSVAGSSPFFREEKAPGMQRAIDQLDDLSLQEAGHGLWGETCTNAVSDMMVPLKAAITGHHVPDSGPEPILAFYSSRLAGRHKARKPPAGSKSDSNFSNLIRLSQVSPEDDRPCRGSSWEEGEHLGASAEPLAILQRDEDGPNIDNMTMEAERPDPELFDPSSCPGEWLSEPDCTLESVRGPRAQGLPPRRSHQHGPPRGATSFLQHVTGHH
Text: as §1, §2

EPHA8 = biological target: T25, EPHA8 (Homo sapiens, UniProt P29322)
T25 construct: purchased Carna Biosciences
Text: as §1, §2

EGFR(L858R) = biological target: T26, EGFR(L858R) (Homo sapiens, UniProt P00533, L858R)
T26 construct: purchased Carna Biosciences
Text: as §1, §2

MER = biological target: T27, MER (Homo sapiens, UniProt Q12866)
T27 construct: purchased Carna Biosciences
Text: as §1, §2

FAK = biological target: T28, FAK (Homo sapiens, UniProt Q05397)
T28 construct: purchased Carna Biosciences
Text: as §1, §2

RET(M918T) = biological target: T29, RET(M918T) (Homo sapiens, UniProt P07949, M918T)
T29 construct: purchased Carna Biosciences
Text: as §1, §2

EGFR = biological target: T30, EGFR (Homo sapiens, UniProt P00533)
T30 construct: purchased Carna Biosciences
Text: as §1, §2

FES = biological target: T31, FES (Homo sapiens, UniProt P07332)
T31 construct: purchased Carna Biosciences
Text: as §1, §2

CSK = biological target: T32, CSK (Homo sapiens, UniProt P41240)
T32 construct: purchased Carna Biosciences
Text: as §1, §2

AurA = biological target: T33, AurA (Homo sapiens, UniProt O14965)
T33 construct: purchased Carna Biosciences
T33 sequence (O14965 whole entry): as the sequence (O14965 whole entry) above
Text: as §1, §2

EPHA6 = biological target: T34, EPHA6 (Homo sapiens, UniProt Q9UF33)
T34 construct: purchased Carna Biosciences
Text: as §1, §2

BLK = biological target: T35, BLK (Homo sapiens, UniProt P51451)
T35 construct: purchased Carna Biosciences
Text: as §1, §2

With `[H]/N=C1/NC(=O)C(=Cc2ccc3c(c2)CCO3)S1` [CaNDY, (Z)-5-[(2,3-dihydrobenzofuran-5-yl)methylene]-2-iminothiazolidin-4-one] the remaining activity at 1 µM (PDGFRβ) was 91.7%, the remaining activity at 1 µM (FGFR4(V550E)) was 102% and the remaining activity at 1 µM (BRSK1) was 97.3%. It also gave a remaining activity at 1 µM (MST4) of 103%, a remaining activity at 1 µM (FLT3) of 101% and a remaining activity at 1 µM (MARK3) of 95%. The remaining activity at 1 µM (AurA/TPX2) was 98.8%, the remaining activity at 1 µM (RON) was 98.6% and the remaining activity at 1 µM (TYRO3) was 104%. The remaining activity at 1 µM (TXK) was 96.8%, the remaining activity at 1 µM (TAK1-TAB1_Cascade) was 104% and the remaining activity at 1 µM (MNK1) was 94.6%. The remaining activity at 1 µM (PKCε) was 91.9%, the remaining activity at 1 µM (EPHB3) was 98.6% and the “%Activity” value (EGFR(d746-750)) was 104.8%. It also gave a remaining activity at 1 µM (BMX) of 100%, a remaining activity at 1 µM (MUSK) of 98.4% and a remaining activity at 1 µM (CaMK2δ) of 89.6%. For the same compound, the remaining activity at 1 µM (CHK2) was 97.2%, the “%Activity” value (JAK2) was 100.3% and the remaining activity at 1 µM (PKCδ) was 74.1%. For the same compound, the remaining activity at 1 µM (FGFR3(K650M)) was 101%, the remaining activity at 1 µM (AMPKα2/β1/γ1) was 97.5% and the remaining activity at 1 µM (HIPK4) was 78.2%. For the same compound, the remaining activity at 1 µM (EPHA8) was 101%, the “%Activity” value (EGFR(L858R)) was 105.7% and the remaining activity at 1 µM (MER) was 102%. For the same compound, the remaining activity at 1 µM (FAK) was 98.5%, the remaining activity at 1 µM (RET(M918T)) was 102% and the “%Activity” value (EGFR) was 99.9%. For the same compound, the remaining activity at 1 µM (FES) was 109%, the “%Activity” value (CSK) was 99.7% and the remaining activity at 1 µM (AurA) was 114%. It also gave a remaining activity at 1 µM (EPHA6) of 96.8% and a remaining activity at 1 µM (BLK) of 101%.
